Test results from publication PMC7763472, “High Capability of Pentagalloylglucose (PGG) in Inhibiting Multiple Types of Membrane Ionic Currents” (International Journal of Molecular Sciences, 2020).

Target: T1, proton-activated Cl− channel (PAC) (Rattus norvegicus, UniProt Q66H28)
T1 construct: gene Pacc1
Assay: whole-cell patch clamp of native IPAC in GH3 cells, pH […], single concentration […]
Type: cell-based

T1 sequence (Q66H28 whole entry): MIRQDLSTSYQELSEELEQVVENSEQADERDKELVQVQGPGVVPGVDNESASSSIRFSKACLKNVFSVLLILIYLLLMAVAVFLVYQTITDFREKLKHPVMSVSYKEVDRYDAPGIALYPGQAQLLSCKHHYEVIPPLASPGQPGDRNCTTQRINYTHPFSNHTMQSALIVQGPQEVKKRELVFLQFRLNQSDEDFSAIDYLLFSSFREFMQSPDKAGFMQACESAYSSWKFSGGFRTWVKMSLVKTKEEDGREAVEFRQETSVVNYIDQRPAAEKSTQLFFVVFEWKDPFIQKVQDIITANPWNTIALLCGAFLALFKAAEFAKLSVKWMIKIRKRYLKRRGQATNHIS

SMILES: CCCCC1(C2CCCC2)Cc2cc(OCCCC(=O)O)c(Cl)c(Cl)c2C1=O (stereo not shown) [DCPIB, 4-[(2-Butyl-6,7-dichloro-2-cyclopentyl-2,3-dihydro-1-oxo-1H-inden-5yl)oxy] butanoic acid]
- inhibition at 10 µM: 51%
